Source: paper PMC10824102, “Identification of small molecule inhibitors of G3BP-driven stress granule formation” (The Journal of Cell Biology, 2024)

What was measured:
Type in all cases: cell-based
[1] = tested on: TDP-43 accumulation in stress granules in U2OS cells; experiment: TDP-43 immunofluorescence after preincubation and arsenite; conditions: 50 μM pretreatment, 250 μM NaAsO2 for 30 min
Description: U2OS cells or U2OS cells stably expressing G3BP1-GFP were seeded in four-well Lab-Tek II Chambered Coverglass (1055360; Thermo Fisher Scientific). For preincubation experiments, cells were treated with 50 μM G3I compound for 20 min or 24 h, followed by 250 μM NaAsO2 and 50 μM G3I compound for 30 min. For posttreatment, cells were treated with 250 μM NaAsO2 for 30 min, followed by treatment with 250 μM NaAsO2 and 50 μM G3I compound for 5 min. Cells were then washed twice with PBS and fixed with 4% PFA in PBS for 10 min. Cells were then washed three times with PBS (5 min between each wash), permeabilized with 0.5% Triton X-100 in PBS for 10 min, and washed twice with PBS. Next, cells were blocked for 1 h with 3% BSA in PBS at room temperature, followed by incubation with primary antibodies diluted in 3% BSA overnight at 4°C. Cells were then washed three times with PBS (5 min between each wash) and incubated with secondary antibodies and Hoechst diluted in 3% BSA at room temperature for 1 h. Cells were then washed three times with PBS (5 min between each wash) and imaged. […]

[2] = tested on: preformed stress granules in U2OS cells stably expressing G3BP1-GFP; experiment: Post-addition: dissolution of preformed arsenite-induced stress granules; conditions: 50 μM added after 30 min of 250 μM NaAsO2
Description: For post-addition of compounds, U2OS cells stably expressing G3BP1-GFP were seeded into eight-well Lab-Tek chambered cover glass (Nunc) for sodium arsenite experiments or 35-mm glass-bottom dishes (MatTek) for heat shock experiments. Immediately prior to the experiment, media was replaced with FluoroBrite DMEM media (Gibco) in each well supplemented with 10% FBS and 4 mM L-glutamine; for sodium arsenite experiments, arsenite was added at a final concentration of 250 μM. Cells were then placed on a microscope on which 37°C temperature and 5% CO2 were maintained using a Bold Line Cage Incubator (Okolab) and an objective heater (Bioptechs), and 5–10 xy fields were stored. For sodium arsenite experiments, acquisition began immediately after finding all xy positions, 4 min after the addition of sodium arsenite. 30 min after arsenite was added, 250 μl FluoroBrite DMEM with 250 μM sodium arsenite and 0.1 mM (2×) G3I compound (vortexed for 5 s) was added to the sample. For heat shock experiments, each xy position was imaged every minute. At 2 min into the acquisition, the objective heater was ramped to 43°C. Following this, 250 μM (5×) G3I compound was prepared in FluoroBrite DMEM and vortexed for 15 s. This solution was kept on a 47°C heater near the microscope along with a pipette tip. […]

[3] = tested on: preformed stress granules in U2OS cells stably expressing G3BP1-GFP; experiment: Post-addition: dissolution of heat stress-induced stress granules; conditions: for immediate reduction in stress granule area (preformed granules): 50 μM added after 25 min of 43°C heat stress; for stress granule disassembly during recovery at 37°C: 50 μM, compared with cells treated with inactive enantiomers
Description: For post-addition of compounds, U2OS cells stably expressing G3BP1-GFP were seeded into eight-well Lab-Tek chambered cover glass (Nunc) for sodium arsenite experiments or 35-mm glass-bottom dishes (MatTek) for heat shock experiments. Immediately prior to the experiment, media was replaced with FluoroBrite DMEM media (Gibco) in each well supplemented with 10% FBS and 4 mM L-glutamine; for sodium arsenite experiments, arsenite was added at a final concentration of 250 μM. Cells were then placed on a microscope on which 37°C temperature and 5% CO2 were maintained using a Bold Line Cage Incubator (Okolab) and an objective heater (Bioptechs), and 5–10 xy fields were stored. For sodium arsenite experiments, acquisition began immediately after finding all xy positions, 4 min after the addition of sodium arsenite. 30 min after arsenite was added, 250 μl FluoroBrite DMEM with 250 μM sodium arsenite and 0.1 mM (2×) G3I compound (vortexed for 5 s) was added to the sample. For heat shock experiments, each xy position was imaged every minute. At 2 min into the acquisition, the objective heater was ramped to 43°C. Following this, 250 μM (5×) G3I compound was prepared in FluoroBrite DMEM and vortexed for 15 s. This solution was kept on a 47°C heater near the microscope along with a pipette tip. At 27 min into the acquisition (25 min into heat shock), 250 μl of the prewarmed solution was added to the cells using the prewarmed tip. We note that the solution was heated to 47°C to compensate for the rapid heat loss when adding the solution. At 32 min into the acquisition (30 min heat shock), the heat was ramped down to 37°C. All imaging was acquired on a Yokogawa CSU W1 spinning disk attached to a Nikon Ti2 eclipse with a Photometrics Prime 95B camera using Nikon Elements software (v5.20.00 to v5.21.02). Imaging was performed through a Nikon Plan Apo 60× 1.40 NA oil objective with Immersol 518 F (refractive index 1.518; Zeiss), and Perfect Focus 2.0 (Nikon) was engaged for all captures.
Automated granule detection and measurement were performed using a combination of ilastik and CellProfiler software. Briefly, ND2 multipoint timelapse files were resaved as image sequences in Fiji with the Bio-Formats plugin so that individual frames of the movies could be treated as individual images for analysis. From there, pixel classification in ilastik was used to segment both stress granules and the total cellular area within the field using the G3BP1-GFP channel via machine learning. These segmentations, along with the original G3BP1-GFP image, were input into CellProfiler, where objects were defined using the masks from ilastik.

SMILES	TDP-43 accumulation in stress granules [1]	reduction of stress granule area (preformed granules) [2] [%]	immediate reduction in stress granule area (preformed granules) [3] [%]	stress granule disassembly during recovery at 37°C [3]
COCCC(NC(=O)C(C)NC(=O)C(NC(=O)C(NC(=O)C(F)CC(C)(C)C)C(C)(C)O)C(C)c1ccccc1)C(=O)N(C)Cc1ccccc1 (centres unmarked) [G3Ia]	not	~74	~54	completed disassembly faster
CC(NC(=O)C(NC(=O)C(NC(=O)CCC(C)(C)C)C(C)(C)O)C(C)c1ccccc1)C(=O)N1CCCC1c1ccccc1 (centres unmarked) [G3Ib]	not	~84	~68	completed disassembly faster
